pIC50: −log10 of the molar value.

Data on 24 molecules can be found in US9533952B2, “N-prop-2-ynyl carboxamide derivatives and their use as TRPA1 antagonists” (Orion Corporation, priority 2012, dated 2017).

The assay addresses TRPA1 (Homo sapiens, UniProt O75762). Nature of the assay: Determination of TRPA1 activity in vitro (TRPA1 antagonism in vitro). As to conditions: procedure of Wei et al., Anesthesiology 111 (2009) 147-154. Format: cell-based.

Sequence of TRPA1 (O75762 whole entry): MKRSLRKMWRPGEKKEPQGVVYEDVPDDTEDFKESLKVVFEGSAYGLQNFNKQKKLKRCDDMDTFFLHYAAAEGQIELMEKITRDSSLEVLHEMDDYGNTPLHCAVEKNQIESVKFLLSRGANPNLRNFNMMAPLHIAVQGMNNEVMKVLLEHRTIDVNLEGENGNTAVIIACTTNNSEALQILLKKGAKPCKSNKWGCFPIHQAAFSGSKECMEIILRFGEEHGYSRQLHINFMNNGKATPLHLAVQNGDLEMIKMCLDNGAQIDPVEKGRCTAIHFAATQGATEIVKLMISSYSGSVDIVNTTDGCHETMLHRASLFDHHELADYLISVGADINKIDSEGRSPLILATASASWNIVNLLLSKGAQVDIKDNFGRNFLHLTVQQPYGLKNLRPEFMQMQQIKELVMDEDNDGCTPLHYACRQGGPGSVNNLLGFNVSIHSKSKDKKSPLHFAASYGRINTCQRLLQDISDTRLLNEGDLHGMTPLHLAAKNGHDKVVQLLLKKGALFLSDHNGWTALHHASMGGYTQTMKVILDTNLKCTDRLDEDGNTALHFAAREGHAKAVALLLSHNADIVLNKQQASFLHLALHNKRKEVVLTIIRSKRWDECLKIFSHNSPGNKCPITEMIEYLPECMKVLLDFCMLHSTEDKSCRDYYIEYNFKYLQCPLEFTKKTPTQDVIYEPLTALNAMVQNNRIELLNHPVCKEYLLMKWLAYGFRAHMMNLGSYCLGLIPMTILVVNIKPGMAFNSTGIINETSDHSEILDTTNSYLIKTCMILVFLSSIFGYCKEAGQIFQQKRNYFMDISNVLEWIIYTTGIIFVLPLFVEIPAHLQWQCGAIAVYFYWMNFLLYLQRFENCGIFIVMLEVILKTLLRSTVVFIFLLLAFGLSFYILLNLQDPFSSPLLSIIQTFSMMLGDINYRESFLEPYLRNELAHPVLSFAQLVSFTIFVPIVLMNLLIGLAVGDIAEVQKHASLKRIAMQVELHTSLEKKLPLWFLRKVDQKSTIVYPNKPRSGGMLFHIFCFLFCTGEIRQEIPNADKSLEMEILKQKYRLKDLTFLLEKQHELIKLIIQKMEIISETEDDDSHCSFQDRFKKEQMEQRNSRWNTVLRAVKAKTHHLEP

Take `C#CC(C)(C)NC(=O)c1cc(Cl)ccc1NC(C)C` [Example 4, 5-Chloro-2-(isopropylamino)-N-(2-methylbut-3-yn-2-yl)benzamide]: the negative logarithm of the IC50 (pIC50) (as a rule, the IC50 on a negative log10 scale, so that one unit is a factor of ten) was 5.33.
On to `C#CC(C)(C)NC(=O)c1ccccc1NCC(F)(F)C(F)(F)F` [Example 19, N-(2-Methylbut-3-yn-2-yl)-2-(2,2,3,3,3-pentafluoropropylamino)-benzamide], for which the pIC50 is 6.30.
To `C#CC(C)(CCC)NC(=O)c1cc(F)c(F)cc1NCC(C)C` (stereo not drawn) [Example 70, 4,5-Difluoro-2-(isobutylamino)-N-(3-methylhex-1-yn-3-yl)benzamide] belongs 6.15; to `C#CC(C)(C)NC(=O)c1cc2c(cc1NCC(C)C)OCO2` [Example 7, 6-(Isobutylamino)-N-(2-methylbut-3-yn-2-yl)benzo[d][1,3]dioxole-5-carboxamide], 5.54; to `C#CC(C)(C)NC(=O)c1cc(Cl)cnc1NCCCOCC` [Example 146, 5-Chloro-2-(3-ethoxypropylamino)-N-(2-methylbut-3-yn-2-yl)nicotinamide], 5.23.
Molecule `C#CC(C)(CC)NC(=O)c1cccnc1Nc1ccc(F)c(OC)c1` (stereo not drawn) [Example 194, 2-(4-Fluoro-3-methoxyphenylamino)-N-(3-methylpent-1-yn-3-yl)nicotinamide] showed a pIC50 of 5.80.
As for `C#CC(C)(C)NC(=O)c1cc(F)cnc1NCCCOc1ccc(F)cc1` [Example 144, 5-Fluoro-2-(3-(4-fluorophenoxy)propylamino)-N-(2-methylbut-3-yn-2-yl)nicotinamide], the pIC50 was 5.59.
To `C#CC(CC)(CC)NC(=O)c1cccc2cc[nH]c12` [Example 119, N-(3-Ethylpent-1-yn-3-yl)-1H-indole-7-carboxamide] belongs 4.73; to `C#CC(C)(C)NC(=O)c1cc(C(F)(F)F)ccc1NCC(F)F` [Example 10, 2-(2,2-Difluoroethylamino)-N-(2-methylbut-3yn-2-yl)-5-(trifluoromethyl)benzamide], 5.82; to `C#CC(C)(C)NC(=O)c1cc(F)c(F)cc1NCCC(F)(F)F` [Example 66, 4,5-Difluoro-N-(2-methylbut-3-yn-2-yl)-2-(3,3,3-trifluoropropylamino)-benzamide], 6.05.
To `C#CC(C)(C)NC(=O)c1cc(F)ccc1NCCCC(F)(F)F` [Example 54, 5-Fluoro-N-(2-methylbut-3-yn-2-yl)-2-(4,4,4-trifluorobutylamino)-benzamide] belongs 5.92.
The molecule `C#CC(C)(C)NC(=O)c1cc(Cl)cnc1NCCC(F)F` [Example 60, 5-Chloro-2-(3,3-difluoropropylamino)-N-(2-methylbut-3-yn-2-yl)nicotinamide] gave a pIC50 of 5.74.
As for `C#CC(C)(C)NC(=O)c1cc(F)cnc1NC(C)C(F)(F)F` (stereo not drawn) [Example 158, 5-Fluoro-N-(2-methylbut-3-yn-2-yl)-2-(1,1,1-trifluoropropan-2-ylamino)nicotinamide], the figure is 5.40; as for `C#CC(C)(NC(=O)c1cc(F)c(F)cc1NCC(C)C)C(C)C` (stereo not drawn) [Example 69, N-(3,4-Dimethylpent-1-yn-3-yl)-4,5-difluoro-2-(isobutylamino)-benzamide], 6.52; as for `C#CC(C)(C)NC(=O)c1cc(C(F)(F)F)cnc1NC(C)(C)C` [Example 128, 2-(tert-Butylamino)-N-(2-methylbut-3-yn-2-yl)-5-(trifluoromethyl)-nicotinamide], 5.96.
To `C#CC(C)(C)NC(=O)c1cc(Cl)cnc1NC1CC(F)(F)C1` [Example 139, 5-Chloro-2-(3,3-difluorocyclobutylamino)-N-(2-methylbut-3-yn-2-yl)nicotinamide] belongs 6.52; to `C#CC(C)(C)NC(=O)c1ccccc1NCCCC` [Example 64, 2-(Butylamino)-N-(2-methylbut-3-yn-2-yl)benzamide], 5.82.
To `C#CC(C)(C)NC(=O)c1cccnc1Nc1ccc(F)c(C#N)c1` [Example 181, 2-(3-Cyano-4-fluorophenylamino)-N-(2-methylbut-3-yn-2-yl)nicotinamide] belongs 5.57; to `C#CC(C)(C)NC(=O)c1cc(F)cnc1NCC(C)C` [Example 51, 5-Fluoro-2-(isobutylamino)-N-(2-methylbut-3-yn-2-yl)nicotinamide], 5.66.
As for `C#CC(C)(C)NC(=O)c1cccc(F)c1NCCC` [Example 16, 3-Fluoro-N-(2-methylbut-3-yn-2-yl)-2-(propylamino)benzamide], the pIC50 was 4.97.
`C#CC(C)(CC)NC(=O)c1cccnc1Nc1cc(F)cc(C#N)c1` (stereo not drawn) [Example 187, 2-(3-Cyano-5-fluorophenylamino)-N-(3-methylpent-1-yn-3-yl)nicotinamide] had a pIC50 of 6.40.
To `C#CC(C)(C)NC(=O)c1cc(Cl)cnc1Nc1ccccc1` [Example 129, 5-Chloro-N-(2-methylbut-3-yn-2-yl)-2-(phenylamino)nicotinamide] belongs 6.15; to `C#CC(C)(C)NC(=O)c1cc(C(F)(F)F)cnc1NCCC(F)(F)F` [Example 2, N-(2-Methylbut-3-yn-2-yl)-5-(trifluoromethyl)-2-(3,3,3-trifluoropropylamino) nicotinamide], 6.52; to `C#CC(C)(CC)NC(=O)c1cc(F)ccc1NCCCC` (stereo not drawn) [Example 102, 2-(Butylamino)-5-fluoro-N-(3-methylpent-1-yn-3-yl)benzamide], 6.52.
